Reference: patent US12005092B2, “Herbal composition for breast cancer prevention” (priority 2021, dated 2024)
“And” between values parts separate entries of the source, which are not always exact repeats. Equal entries are not always repeated.

Test system: MCF-7 cells
Assay: MCF-7 cell viability, PrestoBlue Cell Viability Reagent
Type: cell-based, human
Conditions: individual ingredients, MCF-7, 2 mg/0.2 ml
Description: In order to assess this activity, a well-established line of breast cancer cells used in cancer research was selected. MCF-7 is a widely studied cancer cell line derived from breast adenocarcinoma, it was proven to be a suitable model cell line for breast cancer investigations worldwide, including those regarding anticancer drugs.
The cells were cultured with growth medium and seeded in two 96 well plates incubated at 37 Celsius. The HCBCP solution was prepared by dissolving the powder in DPBS as per Table 1, below.
The obtained solutions were sterilized by 0.22-micron filtration.
An amount of 0.2 ml was applied in each test tube providing 2 mg of HCBCP. […]
After incubation period of 24 and 48 hours, cell viability was measured using PrestoBlue™ Cell Viability Reagent, according to manufacturer instructions.
Fluorescence was detected at excitation wavelength of 560 nm and an emission of 590 nm, using TECAN SPARK 10M microplate reader, at 24 and 48 hours after application. The fluorescence data is expressed as percentage of cell viability (%) compared to vehicle control.
Percentage of cell viability was calculated using the following formula: [(fluorescence of treated cells—mean background fluorescence)/(fluorescence of cells with vehicle control—mean background fluorescence)]×100, at 24 and 48 Hours after Application. […]

O=c1c(O)c(-c2ccc(O)c(O)c2)oc2cc(O)cc(O)c12 [BF 2 Q, Quercetin]
Mean cell viability (%) (24 h (Table 3)): 42.10%
Cell Viability (%) (24 h, single replicates (Table 3)): 44.43% and 44.39% and 40.25% and 39.33%
